Measured values from US20110280939A1 (EVEREST PHARM. INDUSTRIAL CO., LTD., priority 2007, published 2011).
Counter-ions that a name gives are not always drawn.

Assay: average excretion half time in human body

Structure (SMILES): CN[C@@H](C)[C@@H](O)c1ccccc1 [pseudoephedrine hydrochloride]
- average excretion half time: 4.76 ± 0.44 h
